# Experimental data as given in patent US20220144847A1, “HETEROCYCLIC COMPOUND, PHARMACEUTICAL COMPOSITION COMPRISING SAME, PREPARATION METHOD THEREFOR, AND USE THEREOF” (Sichuan Kelun-Biotech Biopharmaceutical Co., Ltd., priority 2019, published 2022).
# Read-outs that look alike come from different tables or passages of the source.
# Key:
# [1] = Pharmacokinetics and tissue distribution of compounds in rats; assay type: in vivo; details: male, SD, rat, PO 5 mg/kg; for AUC(0-t): read-out: AUC AUClast; for Cmax: read-out: Peak concentration Cmax; for Kp: read-out: T/P Ratio of AUClast in tissue to plasma; for Tmax: read-out: Time to peak concentration Tmax
# Description: By intragastric administration (PO) of BLU-667 (prepared according to Example 5 of WO2017/079140A1) and Compound 17 to male SD rats respectively, the plasma concentrations and the tissue concentrations of BLU-667 and Compound 17 in brains, lungs and thyroid of rats were determined to investigate the pharmacokinetic characteristics. The dosage of administration by PO was 5 mg/kg, and the solvent was 0.5% MC (methylcellulose). With administration by PO, blood samples were collected at different time points (0 h before administration, and 0.25 h, 0.5 h, 1 h, 2 h, 4 h, 6 h, 8 h, and 24 h after administration). The blood samples were anticoagulated with dipotassium edetate, and centrifuged to provide plasma samples, which were stored at −80° C. Rats were sacrificed by exsanguination from abdominal aorta at 0.5 h, 2 h, 8 h, and 24 h after PO administration. Brain, lung and thyroid were collected, washed, and homogenized with normal saline at a certain ratio, to provide tissue samples which were stored at −80° C. The plasma samples and tissue samples were processed with precipitated protein and then analyzed by LC-MS/MS. The pharmacokinetic parameters were computed using WinNonlin 6.3 software and using a non-compartmental model.
# [2] = system: human medullary thyroid carcinoma TT cells; assay: Efficacy test in mice, subcutaneous xenograft tumor of TT cells; assay type: in vivo, Balb/c-nu mouse; details: 5 mg/kg, PO, BID; TT nude mouse xenograft
# Description: Experimental purpose: To evaluate the in vivo efficacy of Compound 17 and BLU-667 in a Balb/c-nu mouse model with a subcutaneous xenograft tumor of human medullary thyroid carcinoma TT cells.
# Drug preparation: Compound 17 was dissolved in 0.1 M aqueous solution of H3PO4, and BLU-667 was dissolved in 0.1 M aqueous solution of HOAc, to prepare clear solutions (pH: about 4.0). An aqueous solution of H3PO4 at a pH of about 4.0 was used for the solvent control group. The mode of administration was PO, BID.
# Tumor measurement: The tumor diameter was measured with a vernier caliper twice a week. The computing formula of the tumor volume is: V=0.5×a×b^2, where a represents a long diameter of the tumor, and b represents a short diameter of the tumor. Evaluation of tumor growth inhibition rate (TGI (%)) for tumor inhibition efficacy of the compounds: TGI (%)=[(1-(mean tumor volume of a treatment group at the end of drug administration-mean tumor volume of the treatment group at the commencement of drug administration))/(mean tumor volume of a solvent control group at the end of treatment-mean tumor volume of the solvent control group at the commencement of treatment)]×100%.
# Statistical analysis: Prism Graphpad5.0 software was used for statistical analysis based on the relative tumor volume at the end of the experiment. The comparison between multiple groups was analyzed by two-way ANOVA, and p<0.05 was considered as a significant difference.
# Experimental results: In the TT nude mouse xenograft model of human medullary thyroid carcinoma, Compound 17 has a significant […] anti-tumor effect at a dose of 5 mg/kg. […] Relative tumor growth rate T/C (%)=TRTV/CRTV×100%, where TRTV is the mean relative tumor volume of the test compound group, CRTV is the relative tumor volume of the solvent control group; and the relative tumor volume RTV=Vt/V0, where V0 is the mean tumor volume at the commencement of the administration, and Vt is the mean tumor volume measured on day t after the administration.
# RET-M918T = RET-M918T (Homo sapiens, UniProt P07949, M918T); assay: RET inhibition experiment (HTRF KinEASE-TK kit), mutant RET-M918T; assay type: biochemical; details: read-out: The IC50 (nM) for inhibiting the enzyme RET-M918T
# RET-M918T, sequence (P07949 29-1114 M918T): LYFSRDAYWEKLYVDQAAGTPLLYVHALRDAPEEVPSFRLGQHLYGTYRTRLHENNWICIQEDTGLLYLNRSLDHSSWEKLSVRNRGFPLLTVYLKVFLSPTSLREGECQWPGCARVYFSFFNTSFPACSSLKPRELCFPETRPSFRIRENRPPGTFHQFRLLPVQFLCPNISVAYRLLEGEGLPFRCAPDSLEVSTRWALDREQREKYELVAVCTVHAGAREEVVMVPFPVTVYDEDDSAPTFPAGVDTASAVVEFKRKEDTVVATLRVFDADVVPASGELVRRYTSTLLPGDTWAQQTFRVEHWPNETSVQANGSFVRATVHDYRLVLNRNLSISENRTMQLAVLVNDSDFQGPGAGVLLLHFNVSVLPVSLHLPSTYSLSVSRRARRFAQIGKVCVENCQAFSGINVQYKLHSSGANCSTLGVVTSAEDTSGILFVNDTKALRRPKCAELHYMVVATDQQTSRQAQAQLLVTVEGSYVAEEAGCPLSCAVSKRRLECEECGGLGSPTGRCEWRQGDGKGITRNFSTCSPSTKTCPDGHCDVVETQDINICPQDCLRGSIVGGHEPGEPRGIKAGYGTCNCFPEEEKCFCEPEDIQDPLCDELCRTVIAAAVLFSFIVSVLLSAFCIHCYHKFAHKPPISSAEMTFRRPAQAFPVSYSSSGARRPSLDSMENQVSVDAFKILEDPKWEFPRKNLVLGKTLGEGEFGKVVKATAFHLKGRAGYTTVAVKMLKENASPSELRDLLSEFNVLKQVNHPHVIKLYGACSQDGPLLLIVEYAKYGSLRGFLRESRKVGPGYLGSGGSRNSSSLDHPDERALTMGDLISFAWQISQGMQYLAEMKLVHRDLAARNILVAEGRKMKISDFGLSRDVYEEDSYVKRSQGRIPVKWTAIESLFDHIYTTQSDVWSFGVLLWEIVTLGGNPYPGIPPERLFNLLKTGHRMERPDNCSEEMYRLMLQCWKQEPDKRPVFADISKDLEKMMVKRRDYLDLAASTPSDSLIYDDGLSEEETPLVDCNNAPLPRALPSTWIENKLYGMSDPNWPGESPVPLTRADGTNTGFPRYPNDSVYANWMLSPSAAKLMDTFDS
# Description: (§1) Experimental method: […] After incubation at room temperature for 40 min, TK antibody-cryptate and streptavidin-XL665 were added, and the test was performed after incubation at room temperature for 45 min. With the solvent group (DMSO) as the negative control and the buffer group (without RET enzyme) as the blank control, the relative inhibitory activity percentages (i.e., inhibition rates) of different concentrations of the compounds were computed as per the following formula: […] The relative inhibitory activity percentages of different concentrations of the compounds were plotted with respect to the compound concentrations, and the curve was fitted according to a four-parameter model to compute the IC50 value as per the following formula: y=min+(max-min)/(1+(x/IC50)^(-Hillslope)) where y is the relative inhibitory activity percentage, max is the maximum value of the fitted curve, min is the minimum value of the fitted curve, x is the logarithmic concentration of the compound, and Hillslope is the slope of the curve.
# VEGFR2 = VEGFR2 (Homo sapiens, UniProt P35968); assay: VEGFR2 inhibition experiment (HTRF KinEASE-TK kit); assay type: biochemical; details: read-out: Inhibition rate on VEGFR2; for inhibition at 0.1 µM: 100 nM
# VEGFR2, sequence (P35968 20-1356, species assumed): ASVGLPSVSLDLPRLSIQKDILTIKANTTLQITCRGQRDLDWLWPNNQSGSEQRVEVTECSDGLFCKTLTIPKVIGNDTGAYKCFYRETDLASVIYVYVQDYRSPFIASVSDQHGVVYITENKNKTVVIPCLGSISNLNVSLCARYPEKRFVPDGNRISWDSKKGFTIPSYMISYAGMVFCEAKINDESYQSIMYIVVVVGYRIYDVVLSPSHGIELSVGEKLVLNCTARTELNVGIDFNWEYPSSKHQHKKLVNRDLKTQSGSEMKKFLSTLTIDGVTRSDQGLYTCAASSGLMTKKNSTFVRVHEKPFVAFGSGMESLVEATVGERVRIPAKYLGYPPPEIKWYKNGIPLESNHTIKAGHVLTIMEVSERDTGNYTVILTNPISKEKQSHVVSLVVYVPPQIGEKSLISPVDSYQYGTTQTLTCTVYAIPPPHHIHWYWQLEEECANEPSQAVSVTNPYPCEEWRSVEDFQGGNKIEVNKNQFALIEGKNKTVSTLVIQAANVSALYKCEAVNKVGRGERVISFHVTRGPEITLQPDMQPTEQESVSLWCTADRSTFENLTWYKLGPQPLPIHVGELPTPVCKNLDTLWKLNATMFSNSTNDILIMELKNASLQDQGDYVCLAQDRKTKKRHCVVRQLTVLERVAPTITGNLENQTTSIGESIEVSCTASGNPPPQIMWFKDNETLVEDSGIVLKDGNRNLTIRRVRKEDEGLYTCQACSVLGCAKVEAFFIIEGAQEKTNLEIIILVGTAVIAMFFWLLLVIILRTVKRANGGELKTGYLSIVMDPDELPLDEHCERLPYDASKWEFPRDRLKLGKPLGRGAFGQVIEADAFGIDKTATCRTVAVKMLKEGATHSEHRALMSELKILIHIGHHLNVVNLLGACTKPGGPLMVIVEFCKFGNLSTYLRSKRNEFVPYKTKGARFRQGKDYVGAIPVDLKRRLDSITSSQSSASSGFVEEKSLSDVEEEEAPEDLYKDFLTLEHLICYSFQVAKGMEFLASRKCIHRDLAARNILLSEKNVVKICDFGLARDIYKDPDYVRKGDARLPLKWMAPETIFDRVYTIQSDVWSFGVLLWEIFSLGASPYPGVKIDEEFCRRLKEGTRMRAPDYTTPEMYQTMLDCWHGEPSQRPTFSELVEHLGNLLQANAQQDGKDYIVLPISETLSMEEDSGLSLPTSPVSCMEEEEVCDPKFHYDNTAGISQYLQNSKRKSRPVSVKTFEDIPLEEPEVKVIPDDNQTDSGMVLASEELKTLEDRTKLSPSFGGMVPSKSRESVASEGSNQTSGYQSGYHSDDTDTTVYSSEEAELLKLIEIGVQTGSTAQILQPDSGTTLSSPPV
# Outline: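 HTRF KinEASE-TK format: enzyme and compound were preincubated 30 min at room temperature, then substrate and ATP added for 40 min, followed by cryptate antibody/streptavidin-XL665 detection for 45 min. Inhibition was normalised to DMSO and no-enzyme controls; IC50 from a four-parameter fit.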
# RET-V804L = RET-V804L (Homo sapiens, UniProt P07949, V804L); assay: RET inhibition experiment (HTRF KinEASE-TK kit), mutant RET-V804L; assay type: biochemical; details: read-out: The IC50 (nM) for inhibiting RET-V804L
# RET-V804L, sequence (P07949 29-1114 V804L): as the sequence (P07949 29-1114 M918T) above, with V776L, T890M counted along it
# Description: as §1
# RET-WT = RET-WT (Homo sapiens, UniProt P07949); assay: RET inhibition experiment (HTRF KinEASE-TK kit), wild-type RET enzyme; assay type: biochemical; details: read-out: The IC50 (nM) for inhibiting RET-WT
# RET-WT, sequence (P07949 29-1114): as the sequence (P07949 29-1114 M918T) above, with T890M counted along it
# Description: as §1
# RET-V804M = RET-V804M (Homo sapiens, UniProt P07949, V804M); assay: RET inhibition experiment (HTRF KinEASE-TK kit), mutant RET-V804M; assay type: biochemical; details: read-out: The IC50 (nM) for inhibiting V804M
# RET-V804M, sequence (P07949 29-1114 V804M): as the sequence (P07949 29-1114 M918T) above, with V776M, T890M counted along it
# Outline: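 Enzyme was pre-incubated with compound at room temperature for 30 min, then substrate and ATP were added for a 40 min reaction. HTRF signal was read after 45 min with TK antibody-cryptate and streptavidin-XL665. IC50 came from a four-parameter fit of percent inhibition against DMSO and no-enzyme controls.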
# RET-CCDC6 = molecular target: T1, RET-CCDC6 (Homo sapiens, UniProt P07949); assay: RET inhibition experiment (HTRF KinEASE-TK kit), fusion-type RET enzyme; assay type: biochemical; details: read-out: The IC50 (nM) for inhibiting RET-CCDC6
# T1 construct: CCDC6 fusion partner (Q16204 for human); the other entry of the earlier key: CCDC6 (Q16204, Coiled-coil domain-containing protein 6)
# T1 sequence (P07949 with tags, fused parts or gaps): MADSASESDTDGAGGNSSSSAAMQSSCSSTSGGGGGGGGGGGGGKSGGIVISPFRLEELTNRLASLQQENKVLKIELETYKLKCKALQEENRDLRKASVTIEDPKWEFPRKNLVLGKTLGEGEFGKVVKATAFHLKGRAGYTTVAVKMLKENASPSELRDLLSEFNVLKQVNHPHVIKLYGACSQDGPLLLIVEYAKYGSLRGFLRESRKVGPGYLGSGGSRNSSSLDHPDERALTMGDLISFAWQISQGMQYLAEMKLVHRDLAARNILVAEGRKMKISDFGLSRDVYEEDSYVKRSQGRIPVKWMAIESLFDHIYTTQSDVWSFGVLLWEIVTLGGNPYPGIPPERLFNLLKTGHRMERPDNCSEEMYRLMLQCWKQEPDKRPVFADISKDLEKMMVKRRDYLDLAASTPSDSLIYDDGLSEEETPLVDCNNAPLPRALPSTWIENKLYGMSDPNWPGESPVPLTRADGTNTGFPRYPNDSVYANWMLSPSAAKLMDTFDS
# Description: as §1
compound,measurement,setting,value
"CO[C@]1(C(=O)N[C@@H](C)c2ccc(-n3cc(F)cn3)nc2)CC[C@H](c2nc(C)cc(Nc3cc(C)[nH]n3)n2)CC1 [BLU-667, reference compound]",AUC(0-t),[1]; brain,157 ng·h/mL
same,Cmax,[1]; brain,30.8 ng/mL
same,Kp,[1]; brain,0.018
same,Tmax,[1]; brain,30 min
same,AUC(0-t),[1]; lung,25100 ng·h/mL
same,Cmax,[1]; lung,3570 ng/mL
same,Kp,[1]; lung,2.9
same,Tmax,[1]; lung,30 min
same,AUC(0-t),[1]; plasma,8650 ng·h/mL
same,Cmax,[1]; plasma,1490 ng/mL
same,Kp,[1]; plasma,1
same,Tmax,[1]; plasma,60 min
same,AUC(0-t),[1]; thyroid,6350 ng·h/mL
same,Cmax,[1]; thyroid,888 ng/mL
same,Kp,[1]; thyroid,0.73
same,Tmax,[1]; thyroid,30 min
same,Relative tumor growth rate T/C,[2],33.62%
same,Tumor growth inhibition rate TGI,[2],88.82%
"Cc1cc(Nc2cc(C)[nH]n2)nc(-c2ccc(N3CC4CC(C3)N4Cc3ccc(-n4cccn4)nc3)nc2)n1 [Compound 60, 2-(6-(6-((6-(1H-pyrazol-1-yl)pyridin-3-yl)methyl)-3,6-diazabicyclo[3.1.1]heptan-3-yl)pyridin-3-yl)-6-methyl-N-(5-methyl-1H-pyrazol-3-yl)pyrimidin-4-amine]",IC50,RET-M918T,1.29 ± 0.27 nM
same,inhibition at 0.1 µM,VEGFR2,65%
same,IC50,RET-V804L,5.07 ± 0.4 nM
same,IC50,RET-WT,2.7 ± 0.69 nM
same,IC50,RET-V804M,3.77 ± 0.52 nM
same,IC50,RET-CCDC6,3.99 ± 0.79 nM
"Cc1cc(Nc2cc(C)[nH]n2)nc(-c2ccc(N3CC4CC(C3)N4Cc3ccc(-n4ccc(C5CC5)n4)nc3)nc2)n1 [Compound 120, 2-(6-(6-((6-(3-cyclopropyl-1H-pyrazol-1-yl)pyridin-3-yl)methyl)-3,6-diazabicyclo[3.1.1]heptan-3-yl)pyridin-3-yl)-6-methyl-N-(5-methyl-1H-pyrazol-3-yl)pyrimidin-4-amine]",IC50,RET-M918T,15.8 ± 3.65 nM
same,inhibition at 0.1 µM,VEGFR2,28%
same,IC50,RET-V804L,10.1 ± 1.05 nM
same,IC50,RET-WT,7.33 ± 1.19 nM
same,IC50,RET-V804M,9.12 ± 1.85 nM
same,IC50,RET-CCDC6,18.7 ± 7.27 nM
"Cc1cc(Nc2cc(C)[nH]n2)nc(-c2ccc(N3CC4CC(C3)N4Cc3ccc(-n4ncc(F)c4C)nc3)nc2)n1 [Compound 122, 2-(6-(6-((6-(4-fluoro-5-methyl-1H-pyrazol-1-yl)pyridin-3-yl)methyl)-3,6-diazabicyclo[3.1.1]heptan-3-yl)pyridin-3-yl)-6-methyl-N-(5-methyl-1H-pyrazol-3-yl)pyrimidin-4-amine]",IC50,RET-M918T,4.03 ± 0.66 nM
same,inhibition at 0.3 µM,VEGFR2; 300 nM,67%
same,IC50,RET-V804L,4.79 ± 1.68 nM
same,IC50,RET-WT,2.35 ± 0.24 nM
same,IC50,RET-V804M,3.33 ± 0.75 nM
same,IC50,RET-CCDC6,2.91 ± 0.41 nM
